Source: publication PMC9516332 (Frontiers in Oncology, 2022)
Like-named read-outs stand apart in the source and are kept apart here.

How the values were obtained:
AP-1060 (ETV6-NTRK3) = assay: Cell viability assay; conditions: read-out: IC50 in cell proliferation assay
134 cancer cell lines = assay: Cell viability assay (ATPlite, 72 hours), IC50 on cancer cell line panel

Structure (SMILES): Cn1cc(-c2cc3c(N4CCN(c5ncc([C@@](C)(N)c6ccc(F)cc6)cn5)CC4)ncnn3c2)cn1 [avapritinib]
- IC50 (AP-1060 (ETV6-NTRK3)): 3.46 µM
- IC50 (134 cancer cell lines; HEC-6, read-out: IC50 in cell proliferation assay): 20.9 µM
- IC50 (134 cancer cell lines; Homo sapiens, 769-P, read-out: IC50 in cell proliferation assay): 3 µM
- IC50 (134 cancer cell lines; Homo sapiens, 786-0, read-out: IC50 in cell proliferation assay): 11.8 µM
- IC50 (134 cancer cell lines; Homo sapiens, A 172, read-out: IC50 in cell proliferation assay): 5.91 µM
- IC50 (134 cancer cell lines; Homo sapiens, A204, read-out: IC50 in cell proliferation assay): 0.171 µM
- IC50 (134 cancer cell lines; Homo sapiens, A498, read-out: IC50 in cell proliferation assay): 15.4 µM
- IC50 (134 cancer cell lines; Homo sapiens, A549, read-out: IC50 in cell proliferation assay): 20.5 µM
- IC50 (134 cancer cell lines; Homo sapiens, A704, read-out: IC50 in cell proliferation assay): 22.7 µM
- IC50 (134 cancer cell lines; Homo sapiens, A-375, read-out: IC50 in cell proliferation assay): 17.8 µM
- IC50 (134 cancer cell lines; Homo sapiens, A-427, read-out: IC50 in cell proliferation assay): 8.02 µM
- IC50 (134 cancer cell lines; Homo sapiens, ACHN, read-out: IC50 in cell proliferation assay): 14.8 µM
- IC50 (134 cancer cell lines; Homo sapiens, AN3-CA, read-out: IC50 in cell proliferation assay): 18.1 µM
- IC50 (134 cancer cell lines; Homo sapiens, ASPC1, read-out: IC50 in cell proliferation assay): > 31.6 µM
- IC50 (134 cancer cell lines; Homo sapiens, AU565, read-out: IC50 in cell proliferation assay): 10.1 µM
- IC50 (134 cancer cell lines; Homo sapiens, BT-20, read-out: IC50 in cell proliferation assay): 27.7 µM
- IC50 (134 cancer cell lines; Homo sapiens, BT-474, read-out: IC50 in cell proliferation assay): 7.71 µM
- IC50 (134 cancer cell lines; Homo sapiens, BT-549, read-out: IC50 in cell proliferation assay): 5.18 µM
- IC50 (134 cancer cell lines; Homo sapiens, BXPC-3, read-out: IC50 in cell proliferation assay): 0.292 µM
- IC50 (134 cancer cell lines; Homo sapiens, C-33-A, read-out: IC50 in cell proliferation assay): 4.64 µM
- IC50 (134 cancer cell lines; Homo sapiens, CAL-27, read-out: IC50 in cell proliferation assay): 11 µM
- IC50 (134 cancer cell lines; Homo sapiens, CCF-STTG1, read-out: IC50 in cell proliferation assay): 5.69 µM
- IC50 (134 cancer cell lines; Homo sapiens, CCRF-CEM, read-out: IC50 in cell proliferation assay): 8.33 µM
- IC50 (134 cancer cell lines; Homo sapiens, COLO 205, read-out: IC50 in cell proliferation assay): 10.7 µM
- IC50 (134 cancer cell lines; Homo sapiens, COLO-829, read-out: IC50 in cell proliferation assay): 10.1 µM
- IC50 (134 cancer cell lines; Homo sapiens, DLD-1, read-out: IC50 in cell proliferation assay): 15.2 µM
- IC50 (134 cancer cell lines; Homo sapiens, DU-145, read-out: IC50 in cell proliferation assay): 9.13 µM
- IC50 (134 cancer cell lines; Homo sapiens, DU-4475, read-out: IC50 in cell proliferation assay): 7.09 µM
- IC50 (134 cancer cell lines; Homo sapiens, Daoy, read-out: IC50 in cell proliferation assay): 27.8 µM
- IC50 (134 cancer cell lines; Homo sapiens, DoTc2-4510, read-out: IC50 in cell proliferation assay): 16.3 µM
- IC50 (134 cancer cell lines; Homo sapiens, EOL1, read-out: IC50 in cell proliferation assay): 0.000567 µM
- IC50 (134 cancer cell lines; Homo sapiens, FaDu, read-out: IC50 in cell proliferation assay): 9.3 µM
- IC50 (134 cancer cell lines; Homo sapiens, G-361, read-out: IC50 in cell proliferation assay): 9.28 µM
- IC50 (134 cancer cell lines; Homo sapiens, HCC827, read-out: IC50 in cell proliferation assay): 14 µM
- IC50 (134 cancer cell lines; Homo sapiens, HCC4006, read-out: IC50 in cell proliferation assay): 8.01 µM
- IC50 (134 cancer cell lines; Homo sapiens, HCT-15, read-out: IC50 in cell proliferation assay): 6.36 µM
- IC50 (134 cancer cell lines; Homo sapiens, HCT-116, read-out: IC50 in cell proliferation assay): 8.76 µM
- IC50 (134 cancer cell lines; Homo sapiens, HEC-1, read-out: IC50 in cell proliferation assay): 17 µM
- IC50 (134 cancer cell lines; Homo sapiens, HEC-1B, read-out: IC50 in cell proliferation assay): 8.74 µM
- IC50 (134 cancer cell lines; Homo sapiens, HL-60, read-out: IC50 in cell proliferation assay): 5.2 µM
- IC50 (134 cancer cell lines; Homo sapiens, HT, read-out: IC50 in cell proliferation assay): 22.9 µM
- IC50 (134 cancer cell lines; Homo sapiens, HT-1080, read-out: IC50 in cell proliferation assay): 9.14 µM
- IC50 (134 cancer cell lines; Homo sapiens, Hs746T, read-out: IC50 in cell proliferation assay): 1.81 µM
- IC50 (134 cancer cell lines; Homo sapiens, Hs-578T, read-out: IC50 in cell proliferation assay): 16.8 µM
- IC50 (134 cancer cell lines; Homo sapiens, HuTu80, read-out: IC50 in cell proliferation assay): 5.13 µM
- IC50 (134 cancer cell lines; Homo sapiens, J82, read-out: IC50 in cell proliferation assay): 24.4 µM
- IC50 (134 cancer cell lines; Homo sapiens, Jurkat E6.1, read-out: IC50 in cell proliferation assay): 4.07 µM
- IC50 (134 cancer cell lines; Homo sapiens, K562, read-out: IC50 in cell proliferation assay): 6.03 µM
- IC50 (134 cancer cell lines; Homo sapiens, KATO III, read-out: IC50 in cell proliferation assay): 6.66 µM
- IC50 (134 cancer cell lines; Homo sapiens, KG-1, read-out: IC50 in cell proliferation assay): 1.92 µM
- IC50 (134 cancer cell lines; Homo sapiens, KLE, read-out: IC50 in cell proliferation assay): 5.61 µM
- IC50 (134 cancer cell lines; Homo sapiens, KMS-11, read-out: IC50 in cell proliferation assay): 6.59 µM
- IC50 (134 cancer cell lines; Homo sapiens, KU812, read-out: IC50 in cell proliferation assay): 3.11 µM
- IC50 (134 cancer cell lines; Homo sapiens, Kasumi 1, read-out: IC50 in cell proliferation assay): 0.075 µM
- IC50 (134 cancer cell lines; Homo sapiens, LC-2-ad, read-out: IC50 in cell proliferation assay): 4.91 µM
- IC50 (134 cancer cell lines; Homo sapiens, LNCaP-Clone-FGC, read-out: IC50 in cell proliferation assay): 16 µM
- IC50 (134 cancer cell lines; Homo sapiens, LS174T, read-out: IC50 in cell proliferation assay): 6.55 µM
- IC50 (134 cancer cell lines; Homo sapiens, LS-411N, read-out: IC50 in cell proliferation assay): 10.8 µM
- IC50 (134 cancer cell lines; Homo sapiens, LoVo, read-out: IC50 in cell proliferation assay): 6.42 µM
- IC50 (134 cancer cell lines; Homo sapiens, MCF7, read-out: IC50 in cell proliferation assay): 17.3 µM
- IC50 (134 cancer cell lines; Homo sapiens, MDA-MB-231, read-out: IC50 in cell proliferation assay): 8.5 µM
- IC50 (134 cancer cell lines; Homo sapiens, MDA-MB-453, read-out: IC50 in cell proliferation assay): 1.08 µM
- IC50 (134 cancer cell lines; Homo sapiens, MDA-MB-468, read-out: IC50 in cell proliferation assay): 12.6 µM
- IC50 (134 cancer cell lines; Homo sapiens, MG-63, read-out: IC50 in cell proliferation assay): 11.1 µM
- IC50 (134 cancer cell lines; Homo sapiens, MIA PaCa-2, read-out: IC50 in cell proliferation assay): 11 µM
- IC50 (134 cancer cell lines; Homo sapiens, MKN-45, read-out: IC50 in cell proliferation assay): 5.03 µM
- IC50 (134 cancer cell lines; Homo sapiens, MOLM-13, read-out: IC50 in cell proliferation assay): 0.465 µM
- IC50 (134 cancer cell lines; Homo sapiens, MOLT-4, read-out: IC50 in cell proliferation assay): 6.63 µM
- IC50 (134 cancer cell lines; Homo sapiens, MV4-11, read-out: IC50 in cell proliferation assay): 0.47 µM
- IC50 (134 cancer cell lines; Homo sapiens, MeWo, read-out: IC50 in cell proliferation assay): > 31.6 µM
- IC50 (134 cancer cell lines; Homo sapiens, NCCIT, read-out: IC50 in cell proliferation assay): 3.52 µM
- IC50 (134 cancer cell lines; Homo sapiens, NCI-H82, read-out: IC50 in cell proliferation assay): 2.42 µM
- IC50 (134 cancer cell lines; Homo sapiens, NCI-H460, read-out: IC50 in cell proliferation assay): 16 µM
- IC50 (134 cancer cell lines; Homo sapiens, NCI-H661, read-out: IC50 in cell proliferation assay): 1.66 µM
- IC50 (134 cancer cell lines; Homo sapiens, NCI-H716, read-out: IC50 in cell proliferation assay): 6.81 µM
- IC50 (134 cancer cell lines; Homo sapiens, NCI-H1650, read-out: IC50 in cell proliferation assay): 19.6 µM
- IC50 (134 cancer cell lines; Homo sapiens, NCI-H1975, read-out: IC50 in cell proliferation assay): 11.1 µM
- IC50 (134 cancer cell lines; Homo sapiens, NCI-H2228, read-out: IC50 in cell proliferation assay): 9.99 µM
- IC50 (134 cancer cell lines; Homo sapiens, OVCAR-3, read-out: IC50 in cell proliferation assay): 22.1 µM
- IC50 (134 cancer cell lines; Homo sapiens, PFSK-1, read-out: IC50 in cell proliferation assay): 13.8 µM
- IC50 (134 cancer cell lines; Homo sapiens, RL95-2, read-out: IC50 in cell proliferation assay): 28.3 µM
- IC50 (134 cancer cell lines; Homo sapiens, RPMI-7951, read-out: IC50 in cell proliferation assay): 13.5 µM
- IC50 (134 cancer cell lines; Homo sapiens, RS4-11, read-out: IC50 in cell proliferation assay): 21 µM
- IC50 (134 cancer cell lines; Homo sapiens, Rec1, read-out: IC50 in cell proliferation assay): 28.9 µM
- IC50 (134 cancer cell lines; Homo sapiens, SHP77, read-out: IC50 in cell proliferation assay): 2.22 µM
- IC50 (134 cancer cell lines; Homo sapiens, SK-BR-3, read-out: IC50 in cell proliferation assay): 8.31 µM
- IC50 (134 cancer cell lines; Homo sapiens, SK-N-AS, read-out: IC50 in cell proliferation assay): 20.8 µM
- IC50 (134 cancer cell lines; Homo sapiens, SK-N-FI, read-out: IC50 in cell proliferation assay): > 31.6 µM
- IC50 (134 cancer cell lines; Homo sapiens, SK-N-MC, read-out: IC50 in cell proliferation assay): 6.43 µM
- IC50 (134 cancer cell lines; Homo sapiens, SK-N-SH, read-out: IC50 in cell proliferation assay): 7.42 µM
- IC50 (134 cancer cell lines; Homo sapiens, SNU-5, read-out: IC50 in cell proliferation assay): 9.36 µM
- IC50 (134 cancer cell lines; Homo sapiens, SNU-16, read-out: IC50 in cell proliferation assay): 2.03 µM
- IC50 (134 cancer cell lines; Homo sapiens, SNU-C2B, read-out: IC50 in cell proliferation assay): 10.5 µM
- IC50 (134 cancer cell lines; Homo sapiens, SU-DHL-1, read-out: IC50 in cell proliferation assay): 2.31 µM
- IC50 (134 cancer cell lines; Homo sapiens, SU-DHL-6, read-out: IC50 in cell proliferation assay): 3.18 µM
- IC50 (134 cancer cell lines; Homo sapiens, SUP-T1, read-out: IC50 in cell proliferation assay): 9.11 µM
- IC50 (134 cancer cell lines; Homo sapiens, SW48, read-out: IC50 in cell proliferation assay): 5.58 µM
- IC50 (134 cancer cell lines; Homo sapiens, SW480, read-out: IC50 in cell proliferation assay): 25.4 µM
- IC50 (134 cancer cell lines; Homo sapiens, SW626, read-out: IC50 in cell proliferation assay): 20.2 µM
- IC50 (134 cancer cell lines; Homo sapiens, SW780, read-out: IC50 in cell proliferation assay): 19.3 µM
- IC50 (134 cancer cell lines; Homo sapiens, SW837, read-out: IC50 in cell proliferation assay): > 31.6 µM
- IC50 (134 cancer cell lines; Homo sapiens, SW872, read-out: IC50 in cell proliferation assay): 6.31 µM
- IC50 (134 cancer cell lines; Homo sapiens, SW900, read-out: IC50 in cell proliferation assay): 21.9 µM
- IC50 (134 cancer cell lines; Homo sapiens, SW948, read-out: IC50 in cell proliferation assay): 14 µM
- IC50 (134 cancer cell lines; Homo sapiens, SW982, read-out: IC50 in cell proliferation assay): 10.8 µM
- IC50 (134 cancer cell lines; Homo sapiens, SW-620, read-out: IC50 in cell proliferation assay): > 31.6 µM
- IC50 (134 cancer cell lines; Homo sapiens, T98G, read-out: IC50 in cell proliferation assay): 0.372 µM
- IC50 (134 cancer cell lines; Homo sapiens, TCC-SUP, read-out: IC50 in cell proliferation assay): 2.7 µM
- IC50 (134 cancer cell lines; Homo sapiens, THP-1, read-out: IC50 in cell proliferation assay): 5.42 µM
- IC50 (134 cancer cell lines; Homo sapiens, U2OS, read-out: IC50 in cell proliferation assay): 16.3 µM
- IC50 (134 cancer cell lines; Homo sapiens, U-87 MG, read-out: IC50 in cell proliferation assay): 22.9 µM
- IC50 (134 cancer cell lines; Homo sapiens, U-118-MG, read-out: IC50 in cell proliferation assay): 1.1 µM
- IC50 (134 cancer cell lines; Homo sapiens, UMUC3, read-out: IC50 in cell proliferation assay): 5.49 µM
- IC50 (134 cancer cell lines; Hs766T, read-out: IC50 in cell proliferation assay): > 31.6 µM
- IC50 (134 cancer cell lines; L-82, read-out: IC50 in cell proliferation assay): 8.39 µM
- IC50 (134 cancer cell lines; Rh30, read-out: IC50 in cell proliferation assay): 14.9 µM
